Results on three molecules are retold here after PMC10829846 (Emerging Microbes & Infections, 2023).

The target of data set [1] is T1, NDM-1 (Klebsiella pneumoniae, UniProt C7C422). Briefly: Inhibition of NDM-1 hydrolytic activity, enzymatic assay with meropenem. To be noted: for Restoration of NDM-1 activity by zinc supplementation: 1-fold or 10-fold concentration of Zn^2+; for Inhibitory mode: Lineweaver-Burk plot. Type of data set: biochemical.
The subject of data set [2] is NDM-1 positive bacteria EC1864. Briefly: Checkerboard assay with meropenem. Conditions: meropenem alone […]. Type of data set: cell-based, Escherichia coli.
Data set [3] addresses T1, NDM-1. To be noted: cited from earlier work.
In a further data set the test system is EC1864. Briefly: Sepsis model. The format is in vivo, ICR mice. To be noted: compound oral + meropenem i.v., all 10 mg/kg once daily.
Substrate in data set [4]: C[C@@H](O)[C@H]1C(=O)N2C(C(=O)O)=C(S[C@@H]3CN[C@H](C(=O)N(C)C)C3)[C@H](C)[C@H]12
Kind of data set: purified protein, by the assay type. To be noted: other: meropenem as substrate of recombinant NDM-1; pH 7.5. Type of data set: biochemical.

Take `O=C(O)CN(CCN(CC(=O)O)CC(=O)O)CC(=O)O` [EDTA]: on NDM-1 [1], the “Restoration of NDM-1 activity by zinc supplementation” value is on record as “partially or fully restored” and the Inhibitory mode result is recorded as “non-competitive inhibition”.

For `O=[N+]([O-])c1ccc(O)c2ncccc12` [nitroxoline, 5-nitro-8-hydroxyquinoline], in data set [2], the “MIC value of meropenem with sub-MIC concentration of the compound” value is reported as 8 µg/mL. At NDM-1 [1], the “Restoration of NDM-1 activity by zinc supplementation” value is given as “partially or fully restored” and the Inhibitory mode entry is listed as “non-competitive inhibition”. The “Concentration that completely inhibited NDM-1 activity” value at NDM-1 [3] is 30 µM. For the same molecule, the “Survival rate of sepsis mice, combination therapy with meropenem” value in the data set on EC1864 was “did not exhibit a protective effect”.

B1: recombinant NDM-1 (Klebsiella pneumoniae) (protein)
chain: MHHHHHHMPGEIRPTIGQQMETGDQRFGDLVFRQLAPNVWQHTSYLDMPGFGAVASNGLIVRDGGRVLVVDTAWTDDQTAQILNWIKQEINLPVALAVVTHAHQDKMGGMDALHAAGIATYANALSNQLAPQEGMVAAQHSLTFAANGWVEPATAPNFGPLKVFYPGPGHTSDNITVGIDGTDIAFGGCLIKDSKAKSLGNLGDADTEHYAASARAFGAAFPKASMIVMSHSAPDSRAAITHTARMADKLR
Regarding B1, in data set [4], the Km came out at 54.72 µM and the kcat worked out at 11.71 s⁻¹.
